Measurements published in patent publication US20070105780A1, “Therapeutic agent for iNOS generating illness” (priority 2005, published 2007).
Entries after “also recorded” stand apart in the source; their conditions may differ. Where a SMILES comes first, the peptide text is derived from it. [ ]: non-standard residue; d: D form. The star is where a group is joined. Sta = CC(C)C[C@H](N)[C@@H](O)CC(=O)O; Isovaleryl = CC(C)CC(=O)*; Nle = CCCC[C@H](N)C(=O)O

B1: soybean trypsin inhibitor: protease inhibitor (protein, UniProt P01070 25-205, looked up)
Trypsin inhibitor A: DFVLDNEGNPLENGGTYYILSDITAFGGIRAAPTGNERCPLTVVQSRNELDKGIGTIISSPYRIRFIAEGHPLSLKFDSFAVIMLCVGIPTEWSVVEDLPEGPAVKIGENKDAMDGWFRLERVSDDEFNNYKLVFCPQQAEDDKCGDIGISIDHDDGTRRLVVSKNKPLVVQFQKLDKESL

Columns and labels:
[1] = test system: proteolytic cleavage of iNOS in induced DLD-1-5B2 cells; test: Inhibition of the cleavage of iNOS in situ in induced DLD-1-5B2 cells (Western blot of particulate fraction); type: cell-based, human; conditions: nine hours; for fragmentation (proteolytic cleavage) of iNOS in situ: 24-well plates, 20 μg/well, inhibitor added three hours after start of induction, Western blot FIG. 8; for fragmentation (proteolytic cleavage) of iNOS in situ, larger scale production: T-75 flasks, inhibitor added 3 hours after induction, Western blot FIG. 9
Experimental: DLD-1-5B2 cells, two days past confluence, were induced to express human iNOS using a mixture of recombinant human gamma interferon (rhIFNγ) at 8.33 ng/ml, recombinant human tumor necrosis factor-alpha (rhTNFα) at 3.3 ng/ml, and recombinant human interleukin-1β (rhIL-1β) at 3.3 ng/ml for 12-18 hours before being washed and harvested with trypsin/EDTA. The induced cells were washed three times with sterile PBS, transferred into sterile tubes in a small volume of sterile PBS, and stored frozen at −20° C. until processed for the isolation and fractionation of iNOS.
The frozen, induced DLD-1-5B2 cells were thawed in an ice water bath and lysed by two rapid freeze/thaw cycles using dry ice. The iNOS produced by the induced DLD-1-5B2 cells was then fractionated into a supernatant (soluble) fraction and a particulate fraction. The lysed cells were centrifuged at 16,000×g at 4° C. for 30 minutes to pellet the particulate fraction. The supernatant fraction that contained the soluble iNOS was transferred and stored at −20° C. or used fresh. The pellets were washed once, resuspended in a small volume of ice cold sterile PBS, and the resulting particulate fraction of iNOS was stored at −20° C. or used fresh.
The ability of six specific protease inhibitors to inhibit the cleavage of iNOS in situ was investigated using induced DLD-1-5B2 cells cultured in 24-well plates. Briefly, DLD-1-5B2 cells were cultured in 24-well plates instead of T-75 flasks, as described previously. Two days past confluence, the cells were induced with the same mixture of cytokines, but after three hours, the induction medium was removed from each well, the cells washed with pre-warmed sterile saline, and the medium replaced either with fresh DMEM, or with DMEM containing one of the six protease inhibitors being tested. Each inhibitor was assayed in triplicate at 20 μg/well. Nine hours later (12 hours after the start of the induction) the medium containing the inhibitors was removed, the cells were washed three times with ice-cold PBS, and the 24-well plates were placed on sheets of ice for 10 minutes to loosen the cells from the bottom of the plastic wells. The cells were blown off each well individually using a mechanical pipettor, sterile pipet tips, and ice-cold, sterile PBS. The cells were transferred to individual microfuge tubes on ice, collected by centrifugation, and washed twice with sterile, ice-cold PBS. No trypsin or other protease or EDTA was used during the harvesting or processing of the induced cells. The cells were lysed by 2 freeze/thaw cycles using dry ice and processed as previously described to isolate a supernatant fraction and a particulate fraction by centrifugation at 16,000×g. Both fractions were assayed in duplicate using the chemiluminescent EIA taught in U.S. patent application Ser. No. 09/628,585, and pools of the triplicate samples obtained for each protease inhibitor were analyzed by western blot. No statistically significant difference was found in the amount of iNOS contained in any of the supernatant fractions when compared to other supernatant fractions. Likewise, no statistically significant difference was found in the amount of iNOS contained in any of the particulate fractions when compared to other particulate fractions as measured by the EIA. Further, the distribution of iNOS between the supernatant and particulate fractions was similar for all the samples: the percent of the total iNOS in the supernatant fraction ranged from 55% to 65% and the percent of the total iNOS in the particulate fraction ranged from 35% to 45%. However, as is shown in FIG. 8, a difference in the form of the iNOS was found in the particulate fractions obtained from two of the protease inhibitors.
The quantity of particulate fraction produced was scaled up in T-75 culture flasks for both of these protease inhibitors in order to make enough material to be tested for their individual lethality in our mouse model of sepsis. […]

mouse model of sepsis = test: Lethality of particulate fractions produced in presence of protease inhibitors, mouse model of sepsis; type: in vivo; conditions: LPS primed mice, N=10 per group; E-64 vs no inhibitor P<0.0002, vs SBTI P<0.002
Experimental: It was reasoned that the conversion of soluble iNOS to particulate iNOS, and thereby to lethal iNOS, might be the result of the proteolytic cleavage of the intact protein molecule. It was hypothesized that decreasing the cleavage process might be beneficial to septic patients since the lethal form of iNOS would be reduced or eliminated. This hypothesis was tested using various protease inhibitors. The loss of lethality produced by specific protease inhibitors was assessed by testing the lethal effects exerted by the administration of the particulate iNOS produced in the presence and absence of protease inhibitors to LPS primed mice.
The three particulate fractions prepared in Example IX were tested for their lethality on groups of mice (5 female and 5 male mice per group, N=10) using our mouse model of sepsis. […] It is believed that treatment of septic patients with a protease inhibitor that decreases or stops the cleavage of iNOS in vivo could serve as an effective therapy for SIRS, sepsis, severe sepsis and septic shock.

calpain = target: T1, calpain (Mus musculus, UniProt O35350); conditions: supernatant fraction of dexamethasone treated, induced cell lysate; cited from earlier work
T1 construct: enzymatic activity of calpain in the supernatant fraction of the dexamethasone treated, induced cell lysate
T1 sequence (O35350 1-713): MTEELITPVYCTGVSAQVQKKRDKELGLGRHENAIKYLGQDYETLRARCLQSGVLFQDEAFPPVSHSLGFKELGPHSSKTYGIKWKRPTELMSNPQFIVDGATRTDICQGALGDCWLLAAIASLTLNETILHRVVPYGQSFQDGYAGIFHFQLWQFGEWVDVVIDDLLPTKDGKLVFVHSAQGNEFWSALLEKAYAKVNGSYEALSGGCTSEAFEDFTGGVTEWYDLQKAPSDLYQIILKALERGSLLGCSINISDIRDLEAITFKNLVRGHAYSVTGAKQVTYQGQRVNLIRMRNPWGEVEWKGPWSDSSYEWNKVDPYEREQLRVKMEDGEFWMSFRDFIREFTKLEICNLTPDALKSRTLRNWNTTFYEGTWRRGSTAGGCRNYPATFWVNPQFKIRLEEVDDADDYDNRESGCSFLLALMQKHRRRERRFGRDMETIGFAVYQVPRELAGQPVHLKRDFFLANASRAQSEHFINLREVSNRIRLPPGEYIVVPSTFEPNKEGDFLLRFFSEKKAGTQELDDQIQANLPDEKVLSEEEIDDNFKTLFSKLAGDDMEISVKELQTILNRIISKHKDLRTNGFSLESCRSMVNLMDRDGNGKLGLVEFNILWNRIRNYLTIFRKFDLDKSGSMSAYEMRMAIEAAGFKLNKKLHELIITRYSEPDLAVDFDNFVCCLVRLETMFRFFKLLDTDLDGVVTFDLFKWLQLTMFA
T1 sequence (O88456 1-268 partner): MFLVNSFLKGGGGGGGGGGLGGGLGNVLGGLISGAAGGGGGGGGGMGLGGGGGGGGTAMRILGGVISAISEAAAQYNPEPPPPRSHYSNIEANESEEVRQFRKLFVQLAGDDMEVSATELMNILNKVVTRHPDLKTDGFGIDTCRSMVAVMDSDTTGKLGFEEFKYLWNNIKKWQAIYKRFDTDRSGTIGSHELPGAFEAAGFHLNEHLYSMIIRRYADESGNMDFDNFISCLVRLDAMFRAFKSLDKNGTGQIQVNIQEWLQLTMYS

Row | Molecule | fragmentation (proteolytic cleavage) of iNOS in situ [1] | lethality of the particulate iNOS fraction isolated from cells induced in the presence of the inhibitor (mouse model of sepsis) | fragmentation (proteolytic cleavage) of iNOS in situ, larger scale production [1] | cleavage of recombinant iNOS protein by calpain (calpain) | fragmentation (proteolytic cleavage) of iNOS in situ ([1]; listed as leupeptin)
1 | aprotinin | did not stop (inhibit) this cleavage process |  |  |  | 
2 | CC(C)CC(=O)N[C@H](C(=O)N[C@H](C(=O)N[C@@H](CC(C)C)[C@@H](O)CC(=O)N[C@@H](C)C(=O)N[C@@H](CC(C)C)[C@@H](O)CC(=O)O)C(C)C)C(C)C [pepstatin-A] (Isovaleryl-VV[Sta]A[Sta]-OH) | did not stop (inhibit) this cleavage process | had no effect on the lethality of the particulate iNOS fraction |  |  | 
3 | CC(C)C[C@H](NC(=O)[C@H]1O[C@@H]1C(=O)O)C(=O)NCCCCN=C(N)N [E-64] | inhibited the proteolytic cleavage of the intact iNOS protein; also recorded: stopped (inhibited) the fragmentation of iNOS in situ | decrease the lethality of the particulate iNOS fraction; also recorded: statistically significant decrease in lethality | inhibiting the proteolytic cleavage of intact iNOS protein; also recorded: inhibit the fragmentation of iNOS in situ | inhibit such cleavage | 
4 | α1-protease inhibitor: protease inhibitor | did not stop (inhibit) this cleavage process | had no effect on the lethality of the particulate iNOS fraction |  |  | 
5 | CC(=O)N[C@@H](CC(C)C)C(=O)N[C@@H](CC(C)C)C(=O)N[C@H](C=O)CCCNC(=N)N [Leupeptin, leupeptin] | stopped (inhibited) the fragmentation of iNOS in situ | decrease the lethality of the particulate iNOS fraction |  | inhibit such cleavage | inhibited the proteolytic cleavage of the intact iNOS protein
6 | CCCC[C@@H](C=O)NC(=O)[C@H](CC(C)C)NC(=O)[C@H](CC(C)C)NC(C)=O [Ac-Leu-Leu-NLeu-al] (Ac-Leu-Leu-[Nle]-aldehyde) |  |  |  | inhibit such cleavage | 
7 | B1 | did not stop (inhibit) this cleavage process | had no effect on the lethality of the particulate iNOS fraction | inability of soybean trypsin inhibitor (lane 2) to inhibit this cleavage process |  | 
